Test results published in BindingDB's records for patent US10709709 (Pfizer Inc., 2020).

Target: Protein arginine N-methyltransferase 5 (Homo sapiens, UniProt O14744)
Assay: Biochemical Assay
Method: Compounds were solubilized in DMSO and serially diluted, using 3-fold dilutions, into 100% DMSO at a concentration 50-fold greater than the desired assay concentration. Following dilution, 1 ul was added to an empty 96-well microtiter plate. PRMT5/MEP50 protein complex was combined with H4(1-21) peptide ([…]) in PRMT5 assay buffer (50 mM Tris pH 8.5, 50 mM NaCl, 5 mM MgCl2, 1 mM EDTA, 1 mM TCEP) and 44 ul was added to the microtiter plate containing compound. S-Adenosyl-L-methionine (SAM) was prepared by combining 3H labelled SAM with unlabelled SAM in PRMT5 assay buffer such that the final SAM concentration was 10 uM and the specific activity was 0.2 uCi/ul. The reaction was initiated by adding 5 ul of SAM stock to the microtiter plate. The final reaction conditions were 10 nM PRMT5/MEP50 complex, 200 nM peptide and 1 uM SAM. Following a 25 minute incubation at room temperature, the reaction was stopped with the addition of 100 uL of 20% TCA. The 3H-peptide product was captured using a 96-well filter plate (MSIPN4B, Millipore) and washed 5 times with PBS buffer. Scintillation fluid (100 ul) was added to the dried filter plate and counted in a liquid scintillation counter. IC50 values were determined by fitting the data to the standard 4-parameter dose response equation using Pfizer proprietary software.

Sequence of Protein arginine N-methyltransferase 5 (O14744 whole entry): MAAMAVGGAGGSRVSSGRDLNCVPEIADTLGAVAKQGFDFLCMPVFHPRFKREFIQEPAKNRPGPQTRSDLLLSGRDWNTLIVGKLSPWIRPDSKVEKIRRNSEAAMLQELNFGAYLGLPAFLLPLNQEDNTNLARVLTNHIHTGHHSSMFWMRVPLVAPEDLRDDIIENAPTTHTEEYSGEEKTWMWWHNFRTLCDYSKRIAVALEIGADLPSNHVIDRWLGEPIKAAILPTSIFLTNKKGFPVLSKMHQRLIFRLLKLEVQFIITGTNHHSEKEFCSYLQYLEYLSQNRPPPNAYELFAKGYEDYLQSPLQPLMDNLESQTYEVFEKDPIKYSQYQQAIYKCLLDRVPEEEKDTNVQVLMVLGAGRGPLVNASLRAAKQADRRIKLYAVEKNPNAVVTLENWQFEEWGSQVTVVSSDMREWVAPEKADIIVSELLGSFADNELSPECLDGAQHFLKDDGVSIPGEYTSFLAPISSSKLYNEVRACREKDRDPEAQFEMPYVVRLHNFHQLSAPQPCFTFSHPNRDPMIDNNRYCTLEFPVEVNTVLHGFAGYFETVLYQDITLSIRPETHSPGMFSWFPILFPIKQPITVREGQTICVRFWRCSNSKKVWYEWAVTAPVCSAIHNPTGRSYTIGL

Nc1ncnc2c1c(Br)cn2[C@@H]1C[C@H](Oc2cc(Cl)cc3c2CNCC3)[C@@H](O)[C@H]1O [US10709709, Example 131]
IC50: 1 nM

Cc1cc2c(c(O[C@H]3C[C@@H](n4ccc5c(C)ncnc54)[C@H](O)[C@@H]3O)c1)CNCCO2 [US10709709, Example 206]
IC50: 2 nM

Cc1ncnc2c1ccn2[C@@H]1C[C@H](Oc2cc(C(F)F)cc3c2CNCCO3)[C@@H](O)[C@H]1O [US10709709, Example 205]
IC50: 1 nM
